pIC50: −log10 of the molar value.
Experiments:
ATR kinase = target: T1, ATR kinase (Homo sapiens, UniProt Q13535); assay: ATR inhibition assay (mobility shift assay, FAM-RAD17 phosphorylation); assay type: biochemical; conditions: substrate FAM-RAD17, ATR kinase (Eurofins)
T1 construct: purchased Eurofins 14-953
Experimental: Assay 1: ATR Inhibition Assay
The assay was developed and conducted at Chempartner. All the test compounds were dissolved in 100% DMSO at concentration of 20 mM, then prepare compounds and conducted the assay as follows:
1) Transfer 80 µl20 mM compound to 40 µl of 100% DMSO in a 96-well plate.
2) Serially dilute the compound by transferring 20 µl to 60 µl of 100% DMSO in the next well and so forth for a total of 10 concentrations.
3) Add 100 µl of 100% DMSO to two empty wells for no compound control and no enzyme control in the same 96-well plate. Mark the plate as source plate.
4) Transfer 40 µl of compound from source plate to a new 384-well plate as the intermediate plate.
5) Transfer 60 nl compounds to assay plate by Echo.
No. D14JP007N) into Kinase base buffer (50 mM HEPES, pH 7.5; 0.0015% Brij-35; 0.01% Triton) to prepare 2x enzyme solution, then add 10 µl of 2x enzyme solution to each well of the 384-well assay plate, incubate at room temperature for 10 min.
8) Incubate at 28° C. for specified period of time. Add 40 µl of stop buffer (100 mM HEPES, pH 7.5; 0.015% Brij-35; 0.2% Coating Reagent #3; 50 mM EDTA) to stop reaction.
9) Collect data on Caliper. Convert conversion values to inhibition values.
wherein “max” stands for DMSO control; “min” stands for low control.
Fit the data in XLFit excel add-in version 5.4.0.8 to obtain IC50 values. Equation used is: […]
wherein X means concentration in a format not transformed to logarithms.

[1] = tested on: LoVo (CCL-229) human colorectal cancer cells; assay: Tumor cell anti-proliferation assay (CTG assay); assay type: cell-based; conditions: 96 h incubation, CellTiter-Glo, IC50 (Y=50%)
From the text: Assay 2: Tumor Cell Anti-proliferation Assay (CTG Assay)
Human colorectal cancer cells HT-29 (HTB-38) and LoVo (CCL-229) were selected for the CTG assay, the two cell lines were originally obtained from the American Type Culture Collection (ATCC). Add FBS and appropriate additives into base medium to prepare complete medium, then briefly rinse the cell layer with 0.25% (w/v) Trypsin-0.038% (w/v) EDTA solution to remove all traces of serum that contains trypsin inhibitor, after that, add appropriate volume of Trypsin-EDTA solution to flask and observe cells under an inverted microscope until cell layer is dispersed, at last, add appropriate volume of complete growth medium and aspirate cells by gently pipetting. Collect and count numbers with Vi-cell XR and adjust cell density, seed cells into 96-well opaque-walled clear bottom tissue-culture treated plates in the CO2 incubator for 20-24 hours. All the test compounds will be at 10 mM in DMSO. Compounds are then added to the cell media in 3-fold serial dilutions, the final DMSO concentration is 0.5%. Incubate plates for 96 h at 5% CO2, 37° C. Before the measurement, transfer the appropriate volume of CellTiter-Glo Buffer into the amber bottle containing CellTiter-Glo substrate to reconstitute the lyophilized enzyme/substrate mixture, mix gently, this forms the CellTiter-Glo Reagent (Promega Cat. No. G7573). Equilibrate the plate and its contents to room temperature for approximately 30 minutes, then add 100 µL of CellTiter-Glo Reagent to the assay plate, mix contents for 2 minutes on an orbital shaker to induce cell lysis, incubate at room temperature for 10 minutes to stabilize luminescent signal, at last paste the clear bottom with white back seal and record luminescence with Enspire. IC50 and GI50 values were calculated with XLFit curve fitting software using 4 Parameter Logistic Model Y=Bottom + (Top-Bottom)/(1+(IC50/X)^HillSlope).
The following Table 3 provides the IC50 (Y=50%) values for exemplary compounds of Formula (I).

T1 sequence (Q13535 whole entry): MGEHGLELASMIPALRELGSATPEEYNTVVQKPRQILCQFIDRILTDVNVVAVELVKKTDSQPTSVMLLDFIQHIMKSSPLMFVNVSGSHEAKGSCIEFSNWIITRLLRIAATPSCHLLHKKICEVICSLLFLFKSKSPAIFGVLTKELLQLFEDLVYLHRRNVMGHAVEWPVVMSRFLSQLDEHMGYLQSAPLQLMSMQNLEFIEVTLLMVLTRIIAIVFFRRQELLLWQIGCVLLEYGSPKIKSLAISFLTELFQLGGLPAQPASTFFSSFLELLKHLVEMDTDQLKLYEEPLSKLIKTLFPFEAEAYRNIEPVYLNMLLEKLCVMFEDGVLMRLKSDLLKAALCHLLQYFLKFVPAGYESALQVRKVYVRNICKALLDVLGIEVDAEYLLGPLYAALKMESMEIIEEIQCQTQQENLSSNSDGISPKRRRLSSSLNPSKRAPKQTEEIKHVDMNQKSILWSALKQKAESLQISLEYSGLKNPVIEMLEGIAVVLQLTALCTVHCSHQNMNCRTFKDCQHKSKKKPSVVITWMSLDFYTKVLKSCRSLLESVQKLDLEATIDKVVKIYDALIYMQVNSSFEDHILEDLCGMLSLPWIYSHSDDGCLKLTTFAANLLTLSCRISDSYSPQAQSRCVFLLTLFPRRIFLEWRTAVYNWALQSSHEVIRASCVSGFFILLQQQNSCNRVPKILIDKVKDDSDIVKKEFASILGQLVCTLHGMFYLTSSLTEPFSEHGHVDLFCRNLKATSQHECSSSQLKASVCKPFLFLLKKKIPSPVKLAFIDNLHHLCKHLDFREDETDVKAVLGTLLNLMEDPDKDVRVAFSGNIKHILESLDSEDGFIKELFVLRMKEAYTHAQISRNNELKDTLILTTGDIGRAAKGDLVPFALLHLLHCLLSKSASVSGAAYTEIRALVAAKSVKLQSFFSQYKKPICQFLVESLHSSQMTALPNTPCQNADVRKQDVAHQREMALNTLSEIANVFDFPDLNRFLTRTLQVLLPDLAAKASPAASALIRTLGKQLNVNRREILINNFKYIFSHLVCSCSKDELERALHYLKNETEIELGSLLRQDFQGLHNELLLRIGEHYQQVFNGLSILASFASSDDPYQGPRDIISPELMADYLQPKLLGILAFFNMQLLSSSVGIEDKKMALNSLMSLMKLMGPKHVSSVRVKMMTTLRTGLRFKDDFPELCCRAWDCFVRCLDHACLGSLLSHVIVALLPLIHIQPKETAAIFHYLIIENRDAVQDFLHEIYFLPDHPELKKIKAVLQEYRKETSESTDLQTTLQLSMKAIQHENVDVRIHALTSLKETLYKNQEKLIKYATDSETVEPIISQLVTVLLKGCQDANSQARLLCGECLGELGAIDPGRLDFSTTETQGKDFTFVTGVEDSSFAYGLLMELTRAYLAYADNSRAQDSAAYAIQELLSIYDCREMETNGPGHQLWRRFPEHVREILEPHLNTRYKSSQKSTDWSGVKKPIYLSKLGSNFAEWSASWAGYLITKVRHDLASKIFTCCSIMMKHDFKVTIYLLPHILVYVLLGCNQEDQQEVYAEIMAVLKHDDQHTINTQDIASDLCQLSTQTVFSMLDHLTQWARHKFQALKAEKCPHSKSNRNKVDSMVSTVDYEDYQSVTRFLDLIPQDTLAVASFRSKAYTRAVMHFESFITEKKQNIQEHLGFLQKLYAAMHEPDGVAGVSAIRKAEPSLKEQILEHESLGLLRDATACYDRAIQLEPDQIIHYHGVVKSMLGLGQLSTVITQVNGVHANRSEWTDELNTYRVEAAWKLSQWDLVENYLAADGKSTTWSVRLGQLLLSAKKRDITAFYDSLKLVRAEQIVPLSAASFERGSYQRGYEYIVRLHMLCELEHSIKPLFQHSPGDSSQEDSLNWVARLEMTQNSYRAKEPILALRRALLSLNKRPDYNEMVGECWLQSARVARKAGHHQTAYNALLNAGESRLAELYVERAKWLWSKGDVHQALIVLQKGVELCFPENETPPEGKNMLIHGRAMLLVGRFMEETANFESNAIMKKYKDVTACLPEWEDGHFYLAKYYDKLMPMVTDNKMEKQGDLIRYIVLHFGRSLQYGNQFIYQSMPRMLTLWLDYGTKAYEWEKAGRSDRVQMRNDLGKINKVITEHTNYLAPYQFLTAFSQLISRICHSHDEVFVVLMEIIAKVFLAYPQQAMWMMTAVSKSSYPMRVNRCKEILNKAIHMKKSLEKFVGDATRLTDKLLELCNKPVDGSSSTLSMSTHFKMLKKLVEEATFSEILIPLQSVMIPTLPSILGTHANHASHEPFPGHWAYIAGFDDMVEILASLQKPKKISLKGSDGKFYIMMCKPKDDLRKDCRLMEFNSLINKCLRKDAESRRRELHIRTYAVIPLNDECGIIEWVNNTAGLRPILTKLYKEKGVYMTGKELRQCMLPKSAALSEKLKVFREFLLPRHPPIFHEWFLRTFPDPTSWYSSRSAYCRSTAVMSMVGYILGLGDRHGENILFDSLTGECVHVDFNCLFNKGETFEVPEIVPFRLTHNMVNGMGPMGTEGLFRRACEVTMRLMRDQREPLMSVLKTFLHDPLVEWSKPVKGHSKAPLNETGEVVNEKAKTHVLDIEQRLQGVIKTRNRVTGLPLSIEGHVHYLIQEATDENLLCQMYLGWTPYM
T1 sequence (Q8WXE1 whole entry partner): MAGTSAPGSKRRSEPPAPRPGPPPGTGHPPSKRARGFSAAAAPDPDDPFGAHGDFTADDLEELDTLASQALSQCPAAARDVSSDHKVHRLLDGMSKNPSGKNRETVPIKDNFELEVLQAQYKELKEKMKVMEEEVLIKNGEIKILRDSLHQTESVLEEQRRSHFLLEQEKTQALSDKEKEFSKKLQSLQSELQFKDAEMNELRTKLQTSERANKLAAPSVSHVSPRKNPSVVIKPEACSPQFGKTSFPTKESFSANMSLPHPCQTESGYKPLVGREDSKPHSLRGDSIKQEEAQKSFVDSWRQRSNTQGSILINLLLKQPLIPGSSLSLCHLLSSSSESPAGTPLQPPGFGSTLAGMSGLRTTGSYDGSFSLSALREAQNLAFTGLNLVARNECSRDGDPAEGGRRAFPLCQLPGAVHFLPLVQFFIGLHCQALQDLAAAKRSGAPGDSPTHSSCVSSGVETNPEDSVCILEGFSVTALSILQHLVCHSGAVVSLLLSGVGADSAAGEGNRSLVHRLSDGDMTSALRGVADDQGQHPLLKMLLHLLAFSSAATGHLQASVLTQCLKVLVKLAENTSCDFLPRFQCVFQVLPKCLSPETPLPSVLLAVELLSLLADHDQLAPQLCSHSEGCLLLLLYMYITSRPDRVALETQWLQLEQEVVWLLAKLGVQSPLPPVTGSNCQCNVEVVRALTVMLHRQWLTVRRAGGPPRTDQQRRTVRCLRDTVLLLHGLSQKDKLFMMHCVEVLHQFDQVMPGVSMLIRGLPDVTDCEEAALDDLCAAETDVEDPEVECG

Row | SMILES | pIC50 (ATR kinase) | pIC50 [1]
1 | C[C@@H]1COCCN1c1cc(C2(S(C)(=O)=O)CC2)cc(Nc2ccn[nH]2)n1 [Compound 1, (R)-6-(3-methylmorpholino)-4-(1-(methylsulfonyl)cyclopropyl)-N-(1H-pyrazol-5-yl)pyridin-2-amine] | 7.84 | 6.48
2 | Cc1cnn(C)c1-c1cc(Nc2ccn[nH]2)nc(N2CCOC[C@H]2C)c1 [Compound 4, (R)-4-(1,4-dimethyl-1H-pyrazol-5-yl)-6-(3-methylmorpholino)-N-(1H-pyrazol-5-yl)pyridin-2-amine] | 7.79 | 6.41
3 | C[C@@H]1COCCN1c1cc(C2(S(C)(=O)=O)CC2)nc(Nc2ccn[nH]2)n1 [Compound 5, (R)-4-(3-methylmorpholino)-6-(1-(methylsulfonyl)cyclopropyl)-N-(1H-pyrazol-5-yl)pyrimidin-2-amine] |  | 6.19
4 | Cc1cc(Nc2nc(N3CCOC[C@H]3C)cc(C3(S(C)(=O)=O)CC3)n2)[nH]n1 [Compound 6, 4-(1-methanesulfonylcyclopropyl)-N-(3-methyl-1H-pyrazol-5-yl)-6-[(3R)-3-methylmorpholin-4-yl]pyrimidin-2-amine] | 7.80 | 6.40
5 | C[C@@H]1COCCN1c1cc(C(C)(C)S(C)(=O)=O)nc(Nc2ccn[nH]2)n1 [Compound 7, (R)-4-(3-methylmorpholino)-6-(2-(methylsulfonyl)propan-2-yl)-N-(1H-pyrazol-5-yl)pyrimidin-2-amine] | 7.55 | 6.06
6 | Cc1cc(Nc2nc(N3CCOC[C@H]3C)cc(C(C)(C)S(C)(=O)=O)n2)[nH]n1 [Compound 8, (R)-N-(3-methyl-1H-pyrazol-5-yl)-4-(3-methylmorpholino)-6-(2-(methylsulfonyl)propan-2-yl)pyrimidin-2-amine] | 7.88 | 6.40
7 | Cc1cc(Nc2nc(N3CCOC[C@H]3C)cc(C3(C#N)CC3)n2)[nH]n1 [Compound 9, (R)-1-(2-((3-methyl-1H-pyrazol-5-yl)amino)-6-(3-methylmorpholino)pyrimidin-4-yl)cyclopropanecarbonitrile] | 7.66 | 6.27
8 | Cc1cc(Nc2nc(N3CCOC[C@H]3C)cc(C(C)(C)C#N)n2)[nH]n1 [Compound 10, (R)-2-methyl-2-(2-((3-methyl-1H-pyrazol-5-yl)amino)-6-(3-methylmorpho-lino)pyrimidin-4-yl)propanenitrile] | 8.00 | 6.58
9 | C[C@@H]1COCCN1c1cc(C2(S(C)(=O)=O)CCOCC2)nc(Nc2ccn[nH]2)n1 [Compound 11, (R)-4-(3-methylmorpholino)-6-(4-(methylsulfonyl)tetrahydro-2H-pyran-4-yl)-N-(1H-pyrazol-5-yl)pyrimidin-2-amine] |  | 5.88
10 | Cc1cc(Nc2nc(N3CCOC[C@H]3C)cc(C3(S(C)(=O)=O)CCOCC3)n2)[nH]n1 [Compound 12, (R)-N-(3-methyl-1H-pyrazol-5-yl)-4-(3-methylmorpholino)-6-(4-(methylsulfonyl)tetrahydro-2H-pyran-4-yl)pyrimidin-2-amine] | 7.89 | 6.21
11 | C[C@@H]1COCCN1c1cc(N(C)S(C)(=O)=O)cc(Nc2ccn[nH]2)n1 [Compound 13, (R)-N-(2-((1H-pyrazol-5-yl)amino)-6-(3-methylmorpholino)pyridin-4-yl)-N-methylmethanesulfonamide] |  | 6.09
12 | Cc1cnn(C)c1-c1cc(N2CCOC[C@H]2C)nc(Nc2ccn[nH]2)c1CO [Compound 15, (R)-(2-((1H-pyrazol-5-yl)amino)-4-(1,4-dimethyl-1H-pyrazol-5-yl)-6-(3-methylmorpholino)pyridin-3-yl)methanol] |  | 6.29
13 | C[C@@H]1COCCN1c1cc(C2(S(C)(=O)=O)CC2)c(CO)c(Nc2ccn[nH]2)n1 [Compound 17, (R)-(2-((1H-pyrazol-5-yl)amino)-6-(3-methylmorpholino)-4-(1-(methylsulfo-nyl)cyclopropyl)pyridin-3-yl)methanol] |  | 6.23
14 | Cc1cc(Nc2cc(C3(S(C)(=O)=O)CC3)cc(N3CCOC[C@H]3C)n2)[nH]n1 [Compound 19, 4-(1-methanesulfonylcyclopropyl)-N-(3-methyl-1H-pyrazol-5-yl)-6-[(3R)-3-methylmorpholin-4-yl]pyridin-2-amine] | 7.99 | 6.65
15 | Cc1noc(C)c1-c1cc(Nc2ccn[nH]2)nc(N2CCOC[C@H]2C)c1 [Compound 22, (R)-4-(3,5-dimethylisoxazol-4-yl)-6-(3-methylmorpholino)-N-(1H-pyrazol-5-yl)pyridin-2-amine] |  | 6.72
16 | Cc1cc(Nc2cc(-c3c(C)nnn3C)cc(N3CCOC[C@H]3C)n2)[nH]n1 [Compound 23, 4-(dimethyl-1H-1,2,3-triazol-5-yl)-N-(3-methyl-1H-pyrazol-5-yl)-6-[(3R)-3-methylmorpholin-4-yl]pyridin-2-amine] | 7.81 | 6.41
17 | Cc1cnn(C)c1-c1cc(N2CCOC[C@H]2C)nc(Nc2ccn[nH]2)c1F [Compound 33, (R)-4-(1,4-dimethyl-1H-pyrazol-5-yl)-3-fluoro-6-(3-methylmorpholino)-N-(1H-pyrazol-5-yl)pyridin-2-amine] |  | 6.07
18 | C[C@@H]1COCCN1c1cc(C2(S(C)(=O)=O)CC2)c(F)c(Nc2ccn[nH]2)n1 [Compound 34, (R)-3-fluoro-6-(3-methylmorpholino)-4-(1-(methylsulfonyl)cyclopropyl)-N-(1H-pyrazol-5-yl)pyridin-2-amine] |  | 6.35
19 | Cc1cc(Nc2cc(C3(S(C)(=O)=O)CCOCC3)cc(N3CCOC[C@H]3C)n2)[nH]n1 [Compound 36, (R)-N-(3-methyl-1H-pyrazol-5-yl)-6-(3-methylmorpholino)-4-(4-(methylsulfonyl)tetrahydro-2H-pyran-4-yl)pyridin-2-amine] |  | 6.02
20 | C[C@@H]1COCCN1c1cc(C2(C#N)CCCC2)cc(Nc2ccn[nH]2)n1 [Compound 37, 1-{2-[(3R)-3-methylmorpholin-4-yl]-6-[(1H-pyrazol-5-yl)amino]pyridin-4-yl}cyclopentane-1-carbonitrile] |  | 6.10
21 | C[C@@H]1COCCN1c1cc(C2(C#N)CCOCC2)cc(Nc2ccn[nH]2)n1 [Compound 39, (R)-4-(2-((1H-pyrazol-5-yl)amino)-6-(3-methylmorpholino)pyridin-4-yl) tetrahydro-2H-pyran-4-carbonitrile] |  | 6.07
22 | C[C@@H]1COCCN1c1cc(C2(C#N)CCCC2)nc(Nc2ccn[nH]2)n1 [Compound 40, (R)-1-(2-((1H-pyrazol-5-yl)amino)-6-(3-methylmorpholino)pyrimidin-4-yl) cyclopentane-1-carbonitrile] |  | 6.16
23 | C[C@@H]1COCCN1c1cc(C2(S(C)(=O)=O)CCOCC2)cc(Nc2ccn[nH]2)n1 [Compound 45, (R)-6-(3-methylmorpholino)-4-(4-(methylsulfonyl)tetrahydro-2H-pyran-4-yl)-N-(1H-pyrazol-5-yl)pyridin-2-amine] |  | 5.99
24 | Cc1cc(Nc2cc(-c3c(C)cnn3C)cc(N3CCOC[C@H]3C)n2)[nH]n1 [Compound 46, (R)-4-(1,4-dimethyl-1H-pyrazol-5-yl)-N-(3-methyl-1H-pyrazol-5-yl)-6-(3-methylmorpholino)pyridin-2-amine] |  | 6.39
25 | Cc1cc(Nc2cc(-c3c(C)noc3C)cc(N3CCOC[C@H]3C)n2)[nH]n1 [Compound 47, (R)-4-(3,5-dimethylisoxazol-4-yl)-N-(3-methyl-1H-pyrazol-5-yl)-6-(3-methylmorpholino)pyridin-2-amine] |  | 6.41

Reference: patent US20230339927A1, “ATR INHIBITORS AND USES THEREOF” (ANTENGENE DISCOVERY LIMITED, priority 2020, published 2023)
